According to US6759547B1, “5,6,7,8-tetrahydronaphthalen-2-yl 2,6-difluoroheptatrienoic acid derivatives having serum glucose reducing activity” (Allergan, Inc., priority 2003, dated 2004):
pEC50, pKi: −log10 of the molar value.

Key:
[1] = biological target: T1, RARα (Homo sapiens, UniProt P10276); experiment: ligand binding assay, RARα; settings: read-out: RAR Bind. K1 α
T1 sequence (P10276 1-462): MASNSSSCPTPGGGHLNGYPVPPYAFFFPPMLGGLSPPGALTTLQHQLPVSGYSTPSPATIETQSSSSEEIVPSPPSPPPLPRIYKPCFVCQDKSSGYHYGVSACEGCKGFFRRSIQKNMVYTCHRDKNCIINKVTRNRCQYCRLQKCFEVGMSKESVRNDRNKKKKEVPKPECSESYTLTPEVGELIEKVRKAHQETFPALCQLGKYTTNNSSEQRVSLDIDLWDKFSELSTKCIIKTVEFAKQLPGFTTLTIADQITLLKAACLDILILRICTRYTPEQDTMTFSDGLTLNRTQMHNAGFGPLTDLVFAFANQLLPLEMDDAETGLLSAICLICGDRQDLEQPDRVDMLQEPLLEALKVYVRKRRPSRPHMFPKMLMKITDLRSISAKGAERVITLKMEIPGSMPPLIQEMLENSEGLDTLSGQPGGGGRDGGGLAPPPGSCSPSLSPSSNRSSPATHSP
Excerpt: The results obtained in this assay are expressed in EC50 numbers, as they are also in the chimeric receptor transactivation assay. The results of the ligand binding assay are expressed in Ki numbers.

[2] = biological target: T2, RARγ (Homo sapiens, UniProt P13631); experiment: chimeric receptor transactivation assay, RARγ; assay type: cell-based
T2 sequence (P13631 185-419 limits assumed): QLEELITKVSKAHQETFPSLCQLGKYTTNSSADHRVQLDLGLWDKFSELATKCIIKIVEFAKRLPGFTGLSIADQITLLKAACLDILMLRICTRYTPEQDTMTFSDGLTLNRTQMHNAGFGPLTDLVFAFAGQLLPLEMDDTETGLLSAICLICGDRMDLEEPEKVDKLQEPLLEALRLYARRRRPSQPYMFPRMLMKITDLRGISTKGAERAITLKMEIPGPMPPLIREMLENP
Excerpt: (§1) One such assay is a chimeric receptor transactivation assay which tests for agonist-like activity in the RARα RARβ and RARγ receptor subtypes, and which is based on work published by Feigner P. L. and Holm M. (1989) Focus, 112 is described in detail in U.S. Pat. No. 5,455,265. The specification of U.S. Pat. No. 5,455,265 is hereby expressly incorporated by reference.
(§2) Table 1 discloses the activity of certain exemplary compounds of the invention in the above-described receptor transactivation and binding assays. Particularly, the transactivation data pertaining to activation of the RAR receptors were obtained in the chimeric assay, and the transactivation data pertaining to the activation of RXR receptors were obtained in the holoreceptor assay.

[3] = biological target: T3, RARα (Homo sapiens, UniProt P10276); experiment: chimeric receptor transactivation assay, RARα; assay type: cell-based
T3 sequence (P10276 183-417 limits assumed): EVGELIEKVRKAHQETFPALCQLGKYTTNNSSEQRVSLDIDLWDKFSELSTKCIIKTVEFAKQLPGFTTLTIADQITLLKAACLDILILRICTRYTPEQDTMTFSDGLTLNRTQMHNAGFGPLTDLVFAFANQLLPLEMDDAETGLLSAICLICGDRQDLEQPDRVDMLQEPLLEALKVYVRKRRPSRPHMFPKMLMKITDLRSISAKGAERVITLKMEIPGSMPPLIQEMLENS
Excerpt: as §1, §2

[4] = biological target: T4, RXRγ (Homo sapiens, UniProt P48443); experiment: holoreceptor transactivation assay, RXRγ; assay type: cell-based; settings: for RXR Trans. efficacy γ: efficacy as a percentage compared to the standard compound; for pEC50: holoreceptor assay, read-out: RXR Trans. EC50 γ
T4 construct: expressed in transfected cells
T4 sequence (P48443 1-463): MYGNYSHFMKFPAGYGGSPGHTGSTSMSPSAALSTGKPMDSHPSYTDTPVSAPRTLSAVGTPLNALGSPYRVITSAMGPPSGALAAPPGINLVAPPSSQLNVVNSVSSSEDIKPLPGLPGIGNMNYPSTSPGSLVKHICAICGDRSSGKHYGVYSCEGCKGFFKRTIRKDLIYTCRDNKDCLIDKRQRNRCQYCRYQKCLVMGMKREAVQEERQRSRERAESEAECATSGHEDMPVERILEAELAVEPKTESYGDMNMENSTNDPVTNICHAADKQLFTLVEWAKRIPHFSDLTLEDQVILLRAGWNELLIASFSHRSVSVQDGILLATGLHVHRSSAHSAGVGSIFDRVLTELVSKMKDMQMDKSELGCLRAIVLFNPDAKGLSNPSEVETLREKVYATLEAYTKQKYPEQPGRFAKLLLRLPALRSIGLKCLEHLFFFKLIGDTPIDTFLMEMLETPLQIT
Excerpt: Particularly, the transactivation data pertaining to activation of the RAR receptors were obtained in the chimeric assay, and the transactivation data pertaining to the activation of RXR receptors were obtained in the holoreceptor assay.

[5] = system: female diabetic db/db mice; experiment: serum glucose, triglyceride and thyroxine levels in db/db mice; assay type: in vivo; settings: female db/db mice, Compound 27 50 mg/kg
Experimental: An assay described below tests the effect of compounds of the invention on serum glucose, tryglyceride and thyroxine levels in female 9-10 weeks old db/db mice.
Blood samples (70 μl) were taken by orbital bleeding at 11:00 AM on day 0 (pre-treatment), day 3, and day 6. On day 7, a blood sample (700 μl) was taken at 11:00 AM and the animals were sacrificed. Glucose, triglyceride and thyroxine (T4) levels were determined on a Boehringer Manheim Hatachi Clinical Chemistry Analyzer using standard protocols provided by the manufacturer and reagents that were supplied in commercially available kits (glucose and T4; Boehringer Manheim; triglycerides: Roche Diagnostics). Seven animals were treated in each group.

[6] = efficacy as a percentage compared to the standard compound
[7] = day 0 (pre-treatment), groups: standard compound 5 mg/kg
[8] = oral gavage daily, standard compound 5 mg/kg

Row | SMILES | pKi [1] | pEC50 ([2]; chimeric assay, read-out: RAR Trans. EC50 γ) | RAR Trans. efficacy γ [2, 6] [%] | pEC50 ([3]; chimeric assay, read-out: RAR Trans. EC50 α) | RAR Trans. efficacy α [3, 6] [%] | RXR Trans. efficacy γ [4] [%] | pEC50 [4] | Glucose Day 0 [5, 7] [mg/dL] | Triglycerides Day 0 [5, 7] [mg/dL] | T4 Day 7 ([5]; oral gavage daily for seven days, standard compound 5 mg/kg) [µg/dL] | Glucose Day 3, 3 h [5, 8] [mg/dL] | Glucose Day 6, 3 h [5, 8] [mg/dL] | Triglycerides Day 3, 3 h [5, 8] [mg/dL]
1 | CCCOc1cc2c(cc1\C(C)=C(F)/C=C/C(C)=C(\F)C(=O)O)C(C)(C)CCC2(C)C [Compound 11, (2Z,4E,6E)-2,6-Difluoro-3-methyl-7-(5,5,8,8-tetramethyl-3-propoxy-5,6,7,8-tetrahydro-naphthalen-2-yl)-octa-2,4,6-trienoic acid] | 5.74 | 6.74 | 28 | 8.30 | 12 |  |  |  |  |  |  |  | 
2 | CC/C(=C(F)/C=C/C(C)=C(\F)C(=O)O)c1cc2c(cc1OCOC)C(C)(C)CCC2(C)C [Compound 21, (2Z,4E,6E)-2,6-Difluoro-7-(3-methoxymethoxy-5,5,8,8-tetramethyl-5,6,7,8-tetrahydro-naphthalen-2-yl)-3-methyl-nona-2,4,6-trienoic acid] | 6.59 |  |  |  |  | 36 | 8.10 |  |  |  |  |  | 
3 | CCOc1cc2c(cc1\C(CC)=C(F)/C=C/C(C)=C(\F)C(=O)O)C(C)(C)CCC2(C)C [Compound 27, (2Z,4E,6E)-7-(3-Ethoxy-5,5,8,8-tetramethyl-5,6,7,8-tetrahydro-naphthalen-2-yl)-2,6-difluoro-3-methyl-nona-2,4,6-trienoic acid] | 6.03 |  |  |  |  | 23 | 8.52 | 384 | 152 | 3.9 ± 0.9 | 290 | 225 | 106
